The text below walks through data of patent publication US7452865B2, “Antagonistic analogs of GH RH (2003)” (The Administrare's of the Tulane Educational Fund, priority 2004, dated 2008).

Marks after values point to notes of the source that are not given here.

Experiment [1] relates to PC-3 human prostate cancer xenografts. Nature of the experiment: PC-3 xenografts in nude mice, Experiment 2: tumor growth. Type of experiment: in vivo. The settings on record: for Tumor volume (mm^3) Initial: 5 μg/day groups, at start of treatment; for Tumor volume (mm^3) Final / Tumor volume doubling time / Tumor weight / Tumor volume Final (% inhibition) / Tumor weight (% inhibition): 5 μg/day s.c., 28 days; for Tumor volume Final (% inhibition) / Tumor weight (% inhibition): vs control. How it is done:
(§1) Male nude mice were implanted s.c. with 3 mm^3 pieces of PC-3 human hormone-independent prostate cancer tissue on both flanks. When tumors reached a volume of approx. 50 mm^3, the mice were divided into 5 experimental groups with 7 to 8 animals in each group and received single daily injections for 28 days as follows: 1. Control (vehicle solution); 2. JV-1-38 (10 μg/day s.c.); 3 Peptide 31 (10 μg/day s.c.); 4. Peptide 67 (10 μg/day s.c.); 5. Peptide 62 (10 μg/day s.c.). Tumor volumes were measured twice a week. The experiment was ended on day 29 by sacrificing the mice under Isoflurane anesthesia. Resulting tumors were cleaned, weighed, and snap-frozen until further analyses. Trunk blood was collected from the abdominal aorta and serum was separated for RIA measurement of IGF-I. Statistical analyses of the measurement results were done by two-tailed t-test; data are presented as the means±S.E.
(§2) Experiment 2 was similar to Experiment 1, with the difference that Experiment 2 was started when PC-3 tumors had grown to approximately 30 mm^3 in volume. At this time, the animals were divided into 8 experimental groups with 8 animals in each group, and received single daily injections for 28 days as follows. 1. Control (vehicle solution); 2. JV-1-38 (10 μg/day s.c.); 3. Peptide 46 (5 μg/day: s.c.); 4. Peptide 77 (5 μg/day s.c); 5. Peptide 76 (5 μg/day s.c.); 6. Peptide 70 (5 μg/day s.c.); 7 Peptide 79 (5 μg/day s.c.); 8. Peptide 80 (5 μg/day s.c.). Further details of Experiment 2 are the same as for Experiment 1.

A further experiment has as its system IGF-I. Nature of the experiment: PC-3 xenografts, Experiment 2: serum IGF-I (RIA). Type of experiment: in vivo, nude mice. The settings on record: 5 μg/day s.c., 28 days; for Serum IGF-I (% inhibition): vs control.
From the text: For the measurement of GH and IGF-I levels in the serum, as well as IGF-I and IGF-II concentrations in the cytosol fraction of tumors, blood samples and tumor samples were collected and processed as described (Braczkowski R, Schally A V, Plonowski A, Varga J L, Groot K, Krupa M, Armatis P, Cancer 95: 1735-1745, 2002), hereby incorporated by reference. Briefly, blood samples are centrifuged to separate the serum, tumors are homogenized and centrifuged to separate the cytosol fraction. Serum GH is then measured by the double-antibody RIA method. Before measurement by RIA, IGF-I and IGF-II are extracted from serum and cytosol fractions using an acid-ethanol cryoprecipitation method that eliminates most of the IGF binding proteins, which can interfere with the RIA. IGF-I concentration is measured by RIA using IGF-I as a standard and goat anti-IGF-I antibody (both from DSL Inc., Webster, Tex.). IGF-II concentration is measured by RIA using human recombinant IGF-II (Bachem) as a standard and anti-IGF-II monoclonal antibody (Amano International Enzyme, Troy, Va.).
as §1, §2

For experiment [2], the system named is GH-RH receptor isoforms on membrane fractions of human PC-3 prostate tumors. Type of experiment: binding. Conditions: general statement. In outline: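 Competitive displacement of [^125I]JV-1-42 from crude membranes of human PC-3 prostate tumours grown as nude-mouse xenografts, with unlabelled peptides at 10^−12 to 10^−6 M. Bound radioactivity in the centrifuged pellet gamma-counted; Ki from Munson–Rodbard analysis. Relative affinity = Ki of reference peptide (JV-1-36 or JV-1-38) / Ki of test antagonist.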

In experiment [3] the test system is H-69 human SCLC xenografts. Nature of the experiment: H-69 human SCLC xenografts in nude mice: tumor growth. Type of experiment: in vivo. As for the experimental part:
Male nude mice were implanted s.c. with 3 mm^3 pieces of H-69 human SCLC tissue. When tumors reached a volume of approx. 80 mm^3 the mice were divided into 4 experimental groups of 7-8 animals each and received the following treatment for 4 weeks: group I (control), vehicle solution; group 2, Peptide 67 (10 μg/day s.c.); group 3, Peptide 31 (10 μg/day s.c.); group 4, Peptide 72 (10 μg/day s.c.). Tumor volumes were recorded twice a week. At the end of treatment, mice were anesthetized with isoflurane, killed by decapitation, and tumors were excised and weighed. Data are presented as means±S.E. Data were evaluated by one way ANOVA and the Student-Newman-Keuls test.

The test system of experiment [4] is hGH-RH(1-29)NH2 induced GH release. Nature of the experiment: Inhibition of GH release in superfused rat pituitary system. Type of experiment: cell-based. Conditions: antagonist 30 nM. In outline:
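Dispersed rat pituitary cells in superfusion were preincubated 9 min with analog at various concentrations, then stimulated with 1 nM hGH-RH(1-29)NH2 for 3 min, repeated at 30, 60, 90, 120 min to gauge duration. GH measured by double-antibody RIA; net integrated responses expressed as percent of the initial 1 nM GH-RH response.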

Turning to “[CH3(CH2)6CO-Tyr^1, D-Arg^2, Phe(pCl)^6, Amp^9, Tyr(Me)^10, Abu^15, Nle^27, D-Arg^28, Har^29]hGH-RH(1-29)NH2 [Peptide 70]”, in experiment [1], the “Tumor volume (mm^3) Initial” value is reported as 26.5 ± 3.7 mm^3, the “Tumor volume (mm^3) Final” value is given as 199 ± 40.4*# mm^3, the “Tumor volume doubling time” value was found to be 12.6 ± 2.5 days and the “Tumor weight” value turned out to be 119 ± 25.3 mg. Further, in experiment [1], the “Tumor volume Final (% inhibition)” value is listed as “(43%)” and the “Tumor weight (% inhibition)” value is recorded as “(58%)”. Also, in the experiment with IGF-I, the “Serum IGF-I” value stood at 175 ± 12.9 ng/mL and the “Serum IGF-I (% inhibition)” value is 33%. In experiment [2], the “binding affinities to the tumoral receptors for GH-RH (in words)” value (“binding affinities” below) was “extremely high binding affinities”.

For “[CH3(CH2)6CO-Tyr^1, D-Arg^2, Phe(pCl)^6, Cit^8, Amp^9, Tyr(Me)^10, His^11, Abu^15, Nle^27, D-Arg^28, Har^29]hGH-RH(1-29)NH2 [Peptide 76]”, in experiment [1], the “Tumor volume (mm^3) Initial” value came out at 26.8 ± 3.4 mm^3, the “Tumor volume (mm^3) Final” value came out at 232 ± 30.8 mm^3, the “Tumor volume doubling time” value is 9.4 ± 0.6 days and the “Tumor weight” value is given as 226 ± 48.3 mg. In addition, in experiment [1], the “Tumor volume Final (% inhibition)” value is recorded as “(34%)” and the “Tumor weight (% inhibition)” value is reported as “(20%)”. Besides, in the experiment on IGF-I, the “Serum IGF-I” value turned out to be 260 ± 29.7 ng/mL and the “Serum IGF-I (% inhibition)” value turned out to be 1%. In experiment [2], the “binding affinities” value is “extremely high binding affinities”.

In the case of “[CH3(CH2)6CO-Tyr^1, D-Arg^2, Phe(pCl)^6, Cit^8, His^9, Tyr(Et)^10, His^11, Abu^15, Nle^27, D-Arg^28, Har^29]hGH-RH(1-29)NH2 [Peptide 79]”, in experiment [1], the “Tumor volume (mm^3) Initial” value is 29.1 ± 4.3 mm^3, the “Tumor volume (mm^3) Final” value was 139 ± 49.4*# mm^3, the “Tumor volume doubling time” value was found to be 13.6 ± 1.8 days and the “Tumor weight” value amounted to 153 ± 54.5 mg. In experiment [1], the “Tumor volume Final (% inhibition)” value was “(60%)” and the “Tumor weight (% inhibition)” value was “(46%)”. Further, in the experiment on IGF-I, the “Serum IGF-I” value is reported as 181 ± 19.8 ng/mL and the “Serum IGF-I (% inhibition)” value is 31%. Besides, the “binding affinities” value in experiment [2] is on record as “extremely high binding affinities”.

For the substance “[HOOC(CH2)12CO-Tyr^1, D-Arg^2, Phe(pCl)^6, Amp^9, Tyr(Me)^10, Abu^15, Nle^27, D-Arg^28, Har^29]hGH-RH(1-29)NH2 [Peptide 72]”, in experiment [2], the “binding affinities” value was “extremely high binding affinities”. The “antiproliferative effect on H-69 tumors (in words)” value in experiment [3] (10 μg/day, single daily injections) is “strongest antiproliferative effect”. Further, the “Tumor volume (mm^3) Final” value in experiment [3] (H-69, 10 μg/day s.c., 4 weeks) is 308 ± 23* mm^3. In addition, in experiment [3] (H-69, 10 μg/day s.c., 4 weeks, vs control), the “Tumor volume Final (% inhibition)” value is on record as “(90%)”. Further, in experiment [3] (H-69, at start of treatment), the “Tumor volume (mm^3) Initial” value came out at 81 ± 9 mm^3.

For “[HOOC(CH2)12CO-Tyr^1, D-Arg^2, Phe(pCl)^6, Cit^8, Amp^9, Tyr(Me)^10, His^11, Abu^15, Nle^27, D-Arg^28, Har^29]hGH-RH(1-29)NH2 [Peptide 77]”, in experiment [1], the “Tumor volume (mm^3) Initial” value is on record as 27.2 ± 3.2 mm^3, the “Tumor volume (mm^3) Final” value was 192 ± 44.1 mm^3, the “Tumor volume doubling time” value is 10.7 ± 0.8 days and the “Tumor weight” value stood at 138 ± 34.3 mg. In addition, in experiment [1], the “Tumor volume Final (% inhibition)” value is listed as “(45%)” and the “Tumor weight (% inhibition)” value is “(51%)”. Further, in the experiment on IGF-I, the “Serum IGF-I” value amounted to 276 ± 16.8 ng/mL and the “Serum IGF-I (% inhibition)” value is 0%. In experiment [2], the “binding affinities” value is “extremely high binding affinities”.

Turning to “[PhAc-Tyr^1, D-Arg^2, Phe(pCl)^6, Har^9, Tyr(Me)^10, Abu^15, Nle^27, D-Arg^28, Har^29]hGH-RH(1-29)NHEt [Peptide 46]”, in experiment [1], the “Tumor volume (mm^3) Initial” value came to 26.6 ± 2.7 mm^3, the “Tumor volume (mm^3) Final” value is given as 246 ± 93.7 mm^3, the “Tumor volume doubling time” value was found to be 11.2 ± 1.3 days and the “Tumor weight” value is 188 ± 66.1 mg. In addition, in experiment [1], the “Tumor volume Final (% inhibition)” value is “(30%)” and the “Tumor weight (% inhibition)” value was “(34%)”. For the same substance, in experiment [4] (1 nM hGH-RH(1-29)NH2 at 0 min), the “GH response (% of control) 0 min” value was 91 % of control. For the same substance, the “GH response (% of control) 30 min” value in experiment [4] (1 nM hGH-RH(1-29)NH2 at 30 min) is recorded as 28 % of control. Further, in experiment [4] (1 nM hGH-RH(1-29)NH2 at 60 min), the “GH response (% of control) 60 min” value is 31 % of control. The “GH response (% of control) 90 min” value in experiment [4] (1 nM hGH-RH(1-29)NH2 at 90 min) is reported as 56 % of control. For the same substance, the “GH response (% of control) 120 min” value in experiment [4] (1 nM hGH-RH(1-29)NH2 at 120 min) is listed as 30 % of control. In addition, in the experiment on IGF-I, the “Serum IGF-I” value amounted to 288 ± 17.9 ng/mL and the “Serum IGF-I (% inhibition)” value came to 0%.
